Drawing on patent US20240166642A1, “INHIBITORS OF MYELOPEROXIDASE” (ASTRAZENECA AB, priority 2022, published 2024), this text covers IC50 for 35 molecules.

The structures appear in SMILES notation.

Test [1] has as its target MPO (purified from HL60 cells) (Homo sapiens (Human), UniProt P05164). As to the kind of experiment: MPO activity (IC50), luminol chemiluminescence assay. The following applies: PBS pH7.4, luminol 100 μM, H2O2 50 μM, chemiluminescence recorded after 15 minutes. The test is classed as biochemical. Here is the method: (§1) The experiments were performed in phosphate-buffered saline (PBS), pH7.4. A 10 mM luminol (A4695, Sigma Aldrich, St Louis, MO, USA) stock was prepared in distilled water and further diluted in PBS to a final concentration of 100 μM. H2O2 was prepared as 1 mM stock in PBS, yielding a final concentration of 50 μM after addition into the assay. The compounds were serially diluted in DMSO in a separate plate as a 100× stock solution, and MPO (purified from HL60 cells) and TPO (produced in insect cells, RSR Ltd, Cardiff, UK), were diluted to yield a final concentration of approximately 14 and 150 ng/mL, generating 5600 and 9300 light counts per seconds (LCPS) upon incubation with luminol.
(§2) The experiment was run by pipetting 2 μL 100× stock solution of the compound and 200 μL diluted enzyme in PBS into wells in a 96-well Optiplate (6005290, Perkin Elmer/Thermo Fischer, Waltham, MS, USA), followed by addition of 10 μL H2O2 containing PBS. Chemiluminescence measurement (Perkin Elmer Wallac Microbeta Trilux 1450-029 (12-detector), Turkuu, Finland) was started directly and recorded after 2, 10 and 15 minutes.

Test [2] deals with TPO (produced in insect cells, RSR Ltd) (Homo sapiens (Human), UniProt P07202). Nature of the test: TPO activity (IC50), luminol chemiluminescence assay. The test is classed as biochemical. Conditions: PBS pH7.4, luminol 100 μM, H2O2 50 μM, chemiluminescence recorded after 15 minutes. Here is the method: as §1, §2
TPO (produced in insect cells, RSR Ltd), sequence (P07202 19-933): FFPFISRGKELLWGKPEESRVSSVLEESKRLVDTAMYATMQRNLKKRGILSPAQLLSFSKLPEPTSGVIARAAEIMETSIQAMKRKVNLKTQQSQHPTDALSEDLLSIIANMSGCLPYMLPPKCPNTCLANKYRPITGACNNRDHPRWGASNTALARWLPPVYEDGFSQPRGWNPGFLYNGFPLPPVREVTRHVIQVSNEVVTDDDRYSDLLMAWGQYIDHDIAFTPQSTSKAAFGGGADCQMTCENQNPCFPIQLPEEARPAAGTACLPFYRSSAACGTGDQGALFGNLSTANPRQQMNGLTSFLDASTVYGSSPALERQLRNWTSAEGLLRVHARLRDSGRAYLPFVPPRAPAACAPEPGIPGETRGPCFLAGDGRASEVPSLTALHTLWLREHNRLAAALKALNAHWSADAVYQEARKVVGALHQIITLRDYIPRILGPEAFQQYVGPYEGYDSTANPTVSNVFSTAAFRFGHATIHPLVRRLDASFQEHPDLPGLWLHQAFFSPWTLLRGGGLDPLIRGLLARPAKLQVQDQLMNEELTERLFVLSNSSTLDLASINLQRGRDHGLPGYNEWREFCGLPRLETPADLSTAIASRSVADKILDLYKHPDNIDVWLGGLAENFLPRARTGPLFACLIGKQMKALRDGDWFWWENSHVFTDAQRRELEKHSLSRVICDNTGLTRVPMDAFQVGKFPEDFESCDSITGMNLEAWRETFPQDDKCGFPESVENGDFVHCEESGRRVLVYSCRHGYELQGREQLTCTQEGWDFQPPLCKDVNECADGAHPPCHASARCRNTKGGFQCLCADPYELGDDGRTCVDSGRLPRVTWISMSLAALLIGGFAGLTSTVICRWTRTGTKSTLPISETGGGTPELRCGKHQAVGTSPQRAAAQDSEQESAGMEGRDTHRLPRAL

MPO (purified from HL60 cells), sequence (P05164 49-745): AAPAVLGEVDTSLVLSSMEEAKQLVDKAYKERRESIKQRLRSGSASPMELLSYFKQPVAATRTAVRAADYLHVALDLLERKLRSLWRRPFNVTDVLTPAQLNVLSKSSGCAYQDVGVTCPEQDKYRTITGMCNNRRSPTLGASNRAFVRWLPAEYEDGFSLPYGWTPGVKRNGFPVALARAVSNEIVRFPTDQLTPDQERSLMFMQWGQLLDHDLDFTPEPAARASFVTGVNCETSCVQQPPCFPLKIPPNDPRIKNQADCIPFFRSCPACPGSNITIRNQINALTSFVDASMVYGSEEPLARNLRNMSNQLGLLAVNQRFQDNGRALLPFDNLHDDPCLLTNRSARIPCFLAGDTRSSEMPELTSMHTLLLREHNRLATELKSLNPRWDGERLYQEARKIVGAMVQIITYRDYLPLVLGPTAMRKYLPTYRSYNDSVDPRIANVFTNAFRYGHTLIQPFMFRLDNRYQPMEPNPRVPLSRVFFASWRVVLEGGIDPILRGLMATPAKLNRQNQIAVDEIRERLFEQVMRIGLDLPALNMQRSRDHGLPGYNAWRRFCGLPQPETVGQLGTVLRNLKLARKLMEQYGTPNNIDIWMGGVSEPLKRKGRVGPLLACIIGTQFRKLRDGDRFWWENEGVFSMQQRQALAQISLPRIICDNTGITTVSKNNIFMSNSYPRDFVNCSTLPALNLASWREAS

For orientation: IC50 means the concentration that inhibits the measured activity by half. The low end stands for higher potency, the high end for lower potency. `O=c1[nH]c(=S)n(Cc2ncccc2[C@H]2C[C@@H](C(F)(F)F)CCN2)c2cc[nH]c12` (racemic) [Example 21, rac-2-Thioxo-1-((3-((2R,4S)-4-(trifluoromethyl)piperidin-2-yl)pyridin-2-yl)methyl)-1,2,3,5-tetrahydro-4H-pyrrolo[3,2-d]pyrimidin-4-one]: the IC50 in test [1] came out at 5.7 nM; in test [2], 540 nM.
Taken in the same sequence, the figures for `O=c1[nH]c(=S)n(Cc2ccncc2[C@H]2C[C@@H](C(F)(F)F)CCN2)c2cc[nH]c12` (racemic) [Example 22, rac-2-Thioxo-1-((3-((2R,4S)-4-(trifluoromethyl)piperidin-2-yl)pyridin-4-yl)methyl)-1,2,3,5-tetrahydro-4H-pyrrolo[3,2-d]pyrimidin-4-one] were 11.5 nM and 950 nM.
For the molecule `O=c1[nH]c(=S)n(Cc2ccccc2[C@H]2CCCCN2)c2cc[nH]c12` (single isomer, unassigned) [Example 1a], the IC50 in test [1] is 12.1 nM; in test [2] it was 1010 nM.
Taken in the same sequence, the figures for `O=c1[nH]c(=S)n(Cc2ccccc2[C@H]2CCCCN2)c2cc[nH]c12` (single isomer, unassigned) [Example 1b] were 2.1 nM and 850 nM.
For `O=c1[nH]c(=S)n(Cc2ccc(Cl)cc2[C@H]2CCCCN2)c2cc[nH]c12` (single isomer, unassigned) [Example 2a], the IC50 in test [1] worked out at 12.2 nM; in test [2], 1040 nM.
For `O=c1[nH]c(=S)n(Cc2ccc(Cl)cc2[C@H]2CCCCN2)c2cc[nH]c12` (single isomer, unassigned) [Example 2b], in that order: 3.6 nM and 550 nM.
For `O=c1[nH]c(=S)n(Cc2ccc(Cl)cc2[C@H]2CCCN2)c2cc[nH]c12` (single isomer, unassigned) [Example 3a], in that order: 3 nM and 550 nM.
Taken in the same sequence, the figures for `O=c1[nH]c(=S)n(Cc2ccc(Cl)cc2[C@H]2CCCN2)c2cc[nH]c12` (single isomer, unassigned) [Example 3b] were 27.5 nM and 700 nM.
Consider `O=c1[nH]c(=S)n(Cc2ccc(Cl)cc2[C@H]2COCCN2)c2cc[nH]c12` (single isomer, unassigned) [Example 4a], for which the figures for the IC50 in test [1] and in test [2] were 18.7 nM and 370 nM, respectively.
For `O=c1[nH]c(=S)n(Cc2ccc(Cl)cc2[C@H]2COCCN2)c2cc[nH]c12` (single isomer, unassigned) [Example 4b], in that order: 127 nM and 810 nM.
For `O=c1[nH]c(=S)n(Cc2ccccc2[C@@H]2CCCCCN2)c2cc[nH]c12` (single isomer, unassigned) [Example 6a], in that order: 19.6 nM and 420 nM.
Regarding `O=c1[nH]c(=S)n(Cc2ccccc2[C@@H]2CCCCCN2)c2cc[nH]c12` (single isomer, unassigned) [Example 6b], the results for the IC50 in test [1] and in test [2] were 2.8 nM and 300 nM, respectively.
Consider `O=c1[nH]c(=S)n(Cc2ccccc2[C@H]2C[C@@H](C(F)(F)F)CCN2)c2cc[nH]c12` (single isomer, unassigned) [Example 10a], for which the IC50 in test [1] was found to be 6 nM; in test [2], 1200 nM.
For `O=c1[nH]c(=S)n(Cc2ccccc2[C@H]2C[C@@H](C(F)(F)F)CCN2)c2cc[nH]c12` (single isomer, unassigned) [Example 10b], in that order: 1.5 nM and 430 nM.
Taken in the same sequence, the figures for `O=c1[nH]c(=S)n(Cc2ccccc2[C@H]2CC(F)(F)CCN2)c2cc[nH]c12` (single isomer, unassigned) [Example 12a] were 27 nM and 670 nM.
Consider `O=c1[nH]c(=S)n(Cc2ccccc2[C@H]2CC(F)(F)CCN2)c2cc[nH]c12` (single isomer, unassigned) [Example 12b], for which the values for the IC50 in test [1] and in test [2] were 2.7 nM and 320 nM, respectively.
Taken in the same sequence, the figures for `O=c1[nH]c(=S)n(Cc2cccnc2[C@H]2C[C@@H](C(F)(F)F)CCN2)c2cc[nH]c12` (single isomer, unassigned) [Example 16a] were 31.4 nM and 1610 nM.
For `O=c1[nH]c(=S)n(Cc2cccnc2[C@H]2C[C@@H](C(F)(F)F)CCN2)c2cc[nH]c12` (single isomer, unassigned) [Example 16b], in that order: 3.9 nM and 780 nM.
Taken in the same sequence, the figures for `O=c1[nH]c(=S)n(Cc2ccccc2[C@H]2C[C@H](C(F)(F)F)CCN2)c2nc[nH]c12` (single isomer, unassigned) [Example 18a] were 56.3 nM and 730 nM.
For the molecule `O=c1[nH]c(=S)n(Cc2ccccc2[C@H]2C[C@H](C(F)(F)F)CCN2)c2nc[nH]c12` (single isomer, unassigned) [Example 18b], the figures for the IC50 in test [1] and in test [2] were 2.7 nM and 410 nM, respectively.
Taken in the same sequence, the figures for `O=c1[nH]c(=S)n(Cc2ccccc2[C@H]2C[C@@H](C(F)F)CCN2)c2cc[nH]c12` (single isomer, unassigned) [Example 19a] were 11.9 nM and 1760 nM.
Take `O=c1[nH]c(=S)n(Cc2ccccc2[C@H]2C[C@@H](C(F)F)CCN2)c2cc[nH]c12` (single isomer, unassigned) [Example 19b]: the IC50 in test [1] turned out to be 1.3 nM; in test [2], 570 nM.
Taken in the same sequence, the figures for `O=c1[nH]c(=S)n(Cc2ccccc2[C@H]2CNCCO2)c2cc[nH]c12` (single isomer, unassigned) [Example 29] were 15 nM and 540 nM.
For `O=c1[nH]c(=S)n(Cc2cccnc2[C@H]2C[C@H](C(F)(F)F)CCN2)c2cc[nH]c12` (single isomer, unassigned) [Example 31a], in that order: 30 nM and 1700 nM.
For `O=c1[nH]c(=S)n(Cc2cccnc2[C@H]2C[C@H](C(F)(F)F)CCN2)c2cc[nH]c12` (single isomer, unassigned) [Example 31b], in that order: 48 nM and 2900 nM.
Regarding `O=c1[nH]c(=S)n(Cc2ccccc2[C@H]2C[C@H](C(F)(F)F)CCN2)c2cc[nH]c12` (stereo in doubt) [Example 17a, rel-2-Thioxo-1-(2-((2R,4R)-4-(trifluoromethyl)piperidin-2-yl)benzyl)-1,2,3,5-tetrahydro-4H-pyrrolo[3,2-d]pyrimidin-4-one], the IC50 in test [1] came to 16.5 nM; in test [2] it was 760 nM.
`O=c1[nH]c(=S)n(Cc2ccccc2[C@@H]2C[C@@H](C(F)(F)F)CCN2)c2cc[nH]c12` (stereo in doubt) [Example 17b, rac-2-thioxo-1-(2-((2R,4R)-4-(trifluoromethyl)piperidin-2-yl)benzyl)-1,2,3,5-tetrahydro-4H-pyrrolo[3,2-d]pyrimidin-4-one]: the IC50 in test [1] was 3.4 nM; in test [2], 630 nM.
For `O=c1[nH]c(=S)n(Cc2ccc(Cl)cc2C2COCCN2)c2nc[nH]c12` (stereo not shown) [Example 5, 3-(4-Chloro-2-(morpholin-3-yl)benzyl)-2-thioxo-1,2,3,7-tetrahydro-6H-purin-6-one], in that order: 194 nM and 1680 nM.
For `O=c1[nH]c(=S)n(Cc2ccc(Cl)cc2[C@H]2CCCCCN2)c2nc[nH]c12` [Example 7, (R)-3-(2-(Azepan-2-yl)-4-chlorobenzyl)-2-thioxo-1,2,3,7-tetrahydro-6H-purin-6-one], the results for the IC50 in test [1] and in test [2] were 7.1 nM and 610 nM, respectively.
For `O=c1[nH]c(=S)n(Cc2ccccc2[C@@H]2COCCN2)c2cc[nH]c12` [Example 8, (R)-1-(2-(Morpholin-3-yl)benzyl)-2-thioxo-1,2,3,5-tetrahydro-4H-pyrrolo[3,2-d]pyrimidin-4-one], in that order: 67 nM and 930 nM.
For `CN1CCNC(c2ccccc2Cn2c(=S)[nH]c(=O)c3[nH]ccc32)C1` (stereo not shown) [Example 9, 1-(2-(4-Methylpiperazin-2-yl)benzyl)-2-thioxo-1,2,3,5-tetrahydro-4H-pyrrolo[3,2-d]pyrimidin-4-one], in that order: 10.1 nM and 1270 nM.
For `O=c1[nH]c(=S)n(Cc2ccccc2C2CCC(C(F)(F)F)CN2)c2cc[nH]c12` (stereo not shown) [Example 11, 2-Thioxo-1-(2-(5-(trifluoromethyl)piperidin-2-yl)benzyl)-1,2,3,5-tetrahydro-4H-pyrrolo[3,2-d]pyrimidin-4-one], in that order: 13 nM and 540 nM.
Consider `O=c1[nH]c(=S)n(Cc2ccccc2[C@H]2C[C@@H](C(F)(F)F)CCN2)c2nc[nH]c12` [Example 13a, 2-Thioxo-3-(2-((2R,4S)-4-(trifluoromethyl)piperidin-2-yl)benzyl)-1,2,3,7-tetrahydro-6H-purin-6-one], for which the IC50 in test [1] is 16 nM; in test [2], 1050 nM.
Taken in the same sequence, the figures for `O=c1[nH]c(=S)n(Cc2ccccc2[C@@H]2C[C@H](C(F)(F)F)CCN2)c2nc[nH]c12` [Example 13b, 2-Thioxo-3-(2-((2S,4R)-4-(trifluoromethyl)piperidin-2-yl)benzyl)-1,2,3,7-tetrahydro-6H-purin-6-one] were 2.3 nM and 430 nM.
As to `O=c1[nH]c(=S)n(Cc2ccccc2C2CC(F)(F)CCN2)c2nc[nH]c12` (stereo not shown) [Example 14, 3-(2-(4,4-Difluoropiperidin-2-yl)benzyl)-2-thioxo-1,2,3,7-tetrahydro-6H-purin-6-one], the IC50 was 7.2 nM in test [1] and 540 nM in test [2].
